Literature values, collected in patent publication US11648199B2 (AI Therapeutics, Inc, priority 2014, dated 2023).

Assays:
[1] = cancer patients administered temsirolimus or everolimus; cited from earlier work
[2] = clinical use; cited from earlier work

## CO[C@H]1C[C@@H]2CC[C@@H](C)[C@@](O)(O2)C(=O)C(=O)N2CCCC[C@H]2C(=O)O[C@H]([C@H](C)C[C@@H]2CC[C@@H](OC(=O)C(C)(CO)CO)[C@H](OC)C2)CC(=O)[C@H](C)/C=C(\C)[C@@H](O)[C@@H](OC)C(=O)[C@H](C)C[C@H](C)/C=C/C=C/C=C/1C [temsirolimus]
[1]
  patients who may experience mild grade pulmonary toxicity: 10%

## CO[C@H]1C[C@@H]2CC[C@@H](C)[C@@](O)(O2)C(=O)C(=O)N2CCCC[C@H]2C(=O)O[C@H]([C@H](C)C[C@@H]2CC[C@@H](OCCO)[C@H](OC)C2)CC(=O)[C@H](C)/C=C(\C)[C@@H](O)[C@@H](OC)C(=O)[C@H](C)C[C@H](C)/C=C/C=C/C=C/1C [everolimus]
[1]
  patients who may experience mild grade pulmonary toxicity: 10%

## C=CC[C@@H]1/C=C(\C)C[C@H](C)C[C@H](OC)[C@H]2O[C@@](O)(C(=O)C(=O)N3CCCC[C@H]3C(=O)O[C@H](/C(C)=C/[C@@H]3CC[C@@H](O)[C@H](OC)C3)[C@H](C)[C@@H](O)CC1=O)[C@H](C)C[C@@H]2OC [tacrolimus]
[2]
  lung toxicity: did not show lung toxicity
